According to patent US20090143279A1 (priority 2007, published 2009):
Structures can show the parent of a compound that is named as a salt. Where two headings read alike, the source gives them in different places. Where a SMILES comes first, the peptide text is derived from it. The star is where a group is joined. Tfa = O=C(C(F)(F)F)*

Columns and labels:
reactive oxygen species = format: cell-based, mouse
mtOXPHOS transcripts = format: cell-based, mouse
nuOXPHOS transcripts = format: cell-based, mouse
[1] = tested on: cellular dehydrogenase activity
cytochrome c = format: cell-based, mouse
[2] = tested on: mitochondrial membrane potential; format: cell-based, mouse
OXPHOS gene expression = format: cell-based, mouse
[3] = composite Z-score vs DMSO, Conc 20 μM
[4] = composite Z-score vs mock-treated (DMSO) wells, concentration of each compound in μM
[5] = composite Z-score vs DMSO wells, Conc 20 μM
[6] = composite Z-score vs DMSO, Conc 20.38 μM
[7] = 20 μM, composite Z-score vs DMSO
[8] = normalized composite Z-score vs mock-treated (DMSO) wells, Conc 20 μM
[9] = composite Z-score vs mock-treated (DMSO) wells, Conc 20 μM

SMILES: C[C@@H]1[C@H](O)[C@@H](C)/C=C/C=C/CC/C=C/C=C/C=C/C=C/C(O[C@H]2O[C@H](C)[C@@H](O)[C@H](N)[C@@H]2O)CC2O[C@](O)(CC(O)C(O)CCC(O)CC(O)CC(O)CC(=O)O[C@H]1C)CC(O)C2C(=O)O (stereo partly shown) [nystatin]
- ROS (reactive oxygen species; [3]): −0.043
- mitoOX (mtOXPHOS transcripts; [3]): 0.289
- nucOX (nuOXPHOS transcripts; [3]): 0.284
- Viability (C2C12 myotubes; [3]): 0.794
- MTT [1, 3]: 0.161
- cyt c (cytochrome c; [3]): −0.059
- ΔΨm [2, 3]: −0.356
- GE-HTS (OXPHOS gene expression; [3]): 0.326

SMILES: CC(C)[C@H](NC(=O)[C@H](Cc1ccc(O)cc1)NC(=O)[C@@H](NC(=O)C(F)(F)F)C(C)C)C(=O)O [TFA-Val-Tyr-Val-OH] (Tfa-Val-Tyr-Val-OH)
- ROS (reactive oxygen species; [4]): 0.471
- mitoOX (mtOXPHOS transcripts; [4]): −0.008
- nucOX (nuOXPHOS transcripts; [4]): 0.415
- Viability (C2C12 myotubes; [4]): −0.143
- MTT [1, 4]: −1.019
- cyt c (cytochrome c; [4]): −0.785
- ΔΨm [2, 4]: −0.510
- GE-HTS (OXPHOS gene expression; [4]): 0.294

SMILES: CC(=O)N[C@@H](CC(C)C)C(=O)O [acetyl-L-leucine]
- ROS (reactive oxygen species; [5]): 1.139
- mitoOX (mtOXPHOS transcripts; [5]): 0.088
- nucOX (nuOXPHOS transcripts; [5]): 0.438
- Viability (C2C12 myotubes; [5]): −0.465
- MTT [1, 5]: −0.804
- cyt c (cytochrome c; [5]): 0.267
- ΔΨm [2, 5]: −0.575
- GE-HTS (OXPHOS gene expression; [5]): 0.328

SMILES: C[C@@]12C(=O)OC(=O)[C@]1(C)[C@H]1CC[C@@H]2O1 [cantharidin]
- ROS (reactive oxygen species; [3]): −2.764
- ROS (reactive oxygen species; [6]): −2.786
- mitoOX (mtOXPHOS transcripts; [3]): 2.498
- mitoOX (mtOXPHOS transcripts; [6]): 0.310
- nucOX (nuOXPHOS transcripts; [3]): 0.477
- nucOX (nuOXPHOS transcripts; [6]): 0.144
- Viability (C2C12 myotubes; [3]): −4.063
- Viability (C2C12 myotubes; [6]): −4.714
- MTT [1, 3]: −5.729
- MTT [1, 6]: −5.122
- cyt c (cytochrome c; [3]): −5.284
- cyt c (cytochrome c; [6]): −5.104
- ΔΨm [2, 3]: −2.513
- ΔΨm [2, 6]: −2.722
- GE-HTS (OXPHOS gene expression; [3]): 1.196
- GE-HTS (OXPHOS gene expression; [6]): 0.217

SMILES: CCc1ccc2c(O)c3c(cc2c1C(=O)OC)C(=O)c1c(O)ccc(O)c1C3=O [bisanhydrorutilantinone]
- ROS (reactive oxygen species; [3]): 0.236
- mitoOX (mtOXPHOS transcripts; [3]): −1.532
- nucOX (nuOXPHOS transcripts; [3]): −0.268
- Viability (C2C12 myotubes; [3]): −0.493
- MTT [1, 3]: −1.755
- cyt c (cytochrome c; [3]): 0.148
- ΔΨm [2, 3]: −2.223
- GE-HTS (OXPHOS gene expression; [3]): −0.727

SMILES: ClC1=C(Cl)C2(Cl)C3C4CC(C5OC45)C3C1(Cl)C2(Cl)Cl (stereo not shown) [endrin]
- ROS (reactive oxygen species; [7]): 0.770
- mitoOX (mtOXPHOS transcripts; [7]): −0.385
- nucOX (nuOXPHOS transcripts; [7]): −0.738
- Viability (C2C12 myotubes; [7]): 0.522
- MTT [1, 7]: −1.710
- cyt c (cytochrome c; [7]): 0.726
- ΔΨm [2, 7]: 0.129
- GE-HTS (OXPHOS gene expression; [7]): −0.680

SMILES: CC(=O)O[C@@H]1CC2C(C)(C)C(=O)CC[C@]2(C)C2CC[C@]3(C)C(=CC(=O)O[C@H]3c3ccoc3)[C@@]21C (stereo partly shown) [dihydrodeoxygedunin]
- ROS (reactive oxygen species; [8]): 1.030
- mitoOX (mtOXPHOS transcripts; [8]): −0.631
- nucOX (nuOXPHOS transcripts; [8]): −1.073
- Viability (C2C12 myotubes; [8]): −0.004
- MTT [1, 8]: −0.637
- cyt c (cytochrome c; [8]): 0.751
- ΔΨm [2, 8]: 0.443
- GE-HTS (OXPHOS gene expression; [8]): −1.009

SMILES: N[C@@H](Cc1ccc(N(CCCl)CCCl)cc1)C(=O)O [melphalan]
- ROS (reactive oxygen species; [5]): −0.265
- mitoOX (mtOXPHOS transcripts; [5]): 1.453
- nucOX (nuOXPHOS transcripts; [5]): 1.282
- Viability (C2C12 myotubes; [5]): −0.360
- MTT [1, 5]: −1.387
- cyt c (cytochrome c; [5]): −0.954
- ΔΨm [2, 5]: 0.151
- GE-HTS (OXPHOS gene expression; [5]): 1.449

SMILES: C/C1=C\CC/C(C)=C/CC(C)(C)/C=C/C1 [humulene]
- ROS (reactive oxygen species; [8]): 0.679
- mitoOX (mtOXPHOS transcripts; [8]): 0.060
- nucOX (nuOXPHOS transcripts; [8]): −0.188
- Viability (C2C12 myotubes; [8]): −0.070
- MTT [1, 8]: −1.208
- cyt c (cytochrome c; [8]): −0.100
- ΔΨm [2, 8]: −0.232
- GE-HTS (OXPHOS gene expression; [8]): −0.096

SMILES: C[C@]12CCC(=O)C(O)=C1CC[C@@H]1[C@@H]2CC[C@]2(C)C(=O)CC[C@@H]12 [formestane]
- ROS (reactive oxygen species; [3]): 1.013
- mitoOX (mtOXPHOS transcripts; [3]): 0.121
- nucOX (nuOXPHOS transcripts; [3]): 0.050
- Viability (C2C12 myotubes; [3]): −0.582
- MTT [1, 3]: −0.725
- cyt c (cytochrome c; [3]): −0.115
- ΔΨm [2, 3]: −0.608
- GE-HTS (OXPHOS gene expression; [3]): 0.097

SMILES: COc1cc2ccc(=O)oc2c2ccoc12 [sphondin]
- ROS (reactive oxygen species; [9]): 1.692
- mitoOX (mtOXPHOS transcripts; [9]): −0.666
- nucOX (nuOXPHOS transcripts; [9]): −0.605
- Viability (C2C12 myotubes; [9]): −0.790
- MTT [1, 9]: −0.661
- cyt c (cytochrome c; [9]): 0.091
- ΔΨm [2, 9]: 0.136
- GE-HTS (OXPHOS gene expression; [9]): −0.684

SMILES: C[C@]12CC[C@@H]3c4ccc(O)cc4CC[C@H]3[C@@H]1CC[C@@H]2OC(=O)CCC1CCCC1 [estradiol cypionate]
- ROS (reactive oxygen species; [5]): −0.010
- mitoOX (mtOXPHOS transcripts; [5]): −0.418
- nucOX (nuOXPHOS transcripts; [5]): 0.072
- Viability (C2C12 myotubes; [5]): 0.219
- MTT [1, 5]: −2.428
- cyt c (cytochrome c; [5]): 0.408
- ΔΨm [2, 5]: −0.489
- GE-HTS (OXPHOS gene expression; [5]): −0.124

SMILES: CC(=O)[C@H]1CC[C@H]2[C@@H]3CCC4C[C@H](O)CC[C@]4(C)[C@H]3C[C@H](O)[C@]12C (stereo partly drawn) [dihydroxy (3alpha,12alpha)pregnan-20-one]
- ROS (reactive oxygen species; [9]): 0.206
- mitoOX (mtOXPHOS transcripts; [9]): −0.621
- nucOX (nuOXPHOS transcripts; [9]): −0.972
- Viability (C2C12 myotubes; [9]): −0.622
- MTT [1, 9]: −1.160
- cyt c (cytochrome c; [9]): −0.685
- ΔΨm [2, 9]: −0.540
- GE-HTS (OXPHOS gene expression; [9]): −0.928
